{"source": "PubChem BioAssay (NCI)", "assay_in_all_cases": "NCI anticancer screen, dose series, 48 h", "key": {"HCT-15 colon": {"tested_on": "HCT-15 colon"}, "UACC-62 melanoma": {"tested_on": "UACC-62 melanoma"}, "SF-268 CNS": {"tested_on": "SF-268 CNS"}, "MALME-3M melanoma": {"tested_on": "MALME-3M melanoma"}, "HCT-116 colon": {"tested_on": "HCT-116 colon"}, "KM12 colon": {"tested_on": "KM12 colon"}, "SF-539 CNS": {"tested_on": "SF-539 CNS"}, "ACHN renal": {"tested_on": "ACHN renal"}, "SK-OV-3 ovarian": {"tested_on": "SK-OV-3 ovarian"}, "MDA-MB-231 breast": {"tested_on": "MDA-MB-231 breast"}, "COLO 205 colon": {"tested_on": "COLO 205 colon"}, "RPMI-8226 leukemia": {"tested_on": "RPMI-8226 leukemia"}, "OVCAR-8 ovarian": {"tested_on": "OVCAR-8 ovarian"}, "OVCAR-5 ovarian": {"tested_on": "OVCAR-5 ovarian"}, "HCC-2998 colon": {"tested_on": "HCC-2998 colon"}, "T-47D breast": {"tested_on": "T-47D breast"}, "A549 NSCLC": {"tested_on": "A549 NSCLC"}, "UACC-257 melanoma": {"tested_on": "UACC-257 melanoma"}, "OVCAR-4 ovarian": {"tested_on": "OVCAR-4 ovarian"}, "RXF 393 renal": {"tested_on": "RXF 393 renal"}, "UO-31 renal": {"tested_on": "UO-31 renal"}, "SN12C renal": {"tested_on": "SN12C renal"}, "PC-3 prostate": {"tested_on": "PC-3 prostate"}, "786-0 renal": {"tested_on": "786-0 renal"}, "NCI/ADR-RES ovarian": {"tested_on": "NCI/ADR-RES ovarian"}, "NCI-H460 lung": {"tested_on": "NCI-H460 lung"}, "HOP-62 NSCLC": {"tested_on": "HOP-62 NSCLC"}, "DU-145 prostate": {"tested_on": "DU-145 prostate"}, "NCI-H23 lung": {"tested_on": "NCI-H23 lung"}, "M14 melanoma": {"tested_on": "M14 melanoma"}, "SK-MEL-5 melanoma": {"tested_on": "SK-MEL-5 melanoma"}, "SF-295 CNS": {"tested_on": "SF-295 CNS"}, "OVCAR-3 ovarian": {"tested_on": "OVCAR-3 ovarian"}, "SK-MEL-2 melanoma": {"tested_on": "SK-MEL-2 melanoma"}, "HL-60(TB) leukemia": {"tested_on": "HL-60(TB) leukemia"}, "NCI-H522 lung": {"tested_on": "NCI-H522 lung"}, "BT-549 breast": {"tested_on": "BT-549 breast"}, "HT29 colon": {"tested_on": "HT29 colon"}, "MCF7 breast": {"tested_on": "MCF7 breast"}, "TK-10 renal": {"tested_on": "TK-10 renal"}, "HS 578T breast": {"tested_on": "HS 578T breast"}, "IGROV1 ovarian": {"tested_on": "IGROV1 ovarian"}, "MDA-N": {"tested_on": "MDA-N"}, "EKVX NSCLC": {"tested_on": "EKVX NSCLC"}, "NCI-H226 lung": {"tested_on": "NCI-H226 lung"}, "SNB-75 CNS": {"tested_on": "SNB-75 CNS"}}, "note": "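Results reflect a 48-hour exposure of cells in 96-well plates to compound at five concentrations. Definition used: TGI = concentration required for complete inhibition of growth.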", "data": [{"smiles": "O=C1c2c(O)ccc(O)c2C(=O)c2c(NCCNC(=O)C(O)C(O)C(O)C(O)CO)ccc(NCCNC(=O)C(O)C(O)C(O)C(O)CO)c21", "note": "(stereo unspecified)", "values": [{"measurement": "TGI", "setting": "HCT-15 colon", "value": 1040, "unit": "nM"}, {"measurement": "TGI", "setting": "UACC-62 melanoma", "value": 1040, "unit": "nM"}, {"measurement": "TGI", "setting": "SF-268 CNS", "value": 1980, "unit": "nM"}, {"measurement": "TGI", "setting": "MALME-3M melanoma", "value": 2650, "unit": "nM"}, {"measurement": "TGI", "setting": "HCT-116 colon", "value": 197, "unit": "nM"}, {"measurement": "TGI", "setting": "KM12 colon", "value": 534, "unit": "nM"}, {"measurement": "TGI", "setting": "SF-539 CNS", "value": 440, "unit": "nM"}, {"measurement": "TGI", "setting": "ACHN renal", "value": 101, "unit": "nM"}, {"measurement": "TGI", "setting": "SK-OV-3 ovarian", "value": 1410, "unit": "nM"}, {"measurement": "TGI", "setting": "MDA-MB-231 breast", "value": 633, "unit": "nM"}, {"measurement": "TGI", "setting": "COLO 205 colon", "value": 578, "unit": "nM"}, {"measurement": "TGI", "setting": "RPMI-8226 leukemia", "value": 202, "unit": "nM"}, {"measurement": "TGI", "setting": "OVCAR-8 ovarian", "value": 528, "unit": "nM"}, {"measurement": "TGI", "setting": "OVCAR-5 ovarian", "value": 1880, "unit": "nM"}, {"measurement": "TGI", "setting": "HCC-2998 colon", "value": 483, "unit": "nM"}, {"measurement": "TGI", "setting": "T-47D breast", "value": 2350, "unit": "nM"}, {"measurement": "TGI", "setting": "A549 NSCLC", "value": 1530, "unit": "nM"}, {"measurement": "TGI", "setting": "UACC-257 melanoma", "value": 7.24, "unit": "µM"}, {"measurement": "TGI", "setting": "OVCAR-4 ovarian", "value": 771, "unit": "nM"}, {"measurement": "TGI", "setting": "RXF 393 renal", "value": 812, "unit": "nM"}, {"measurement": "TGI", "setting": "UO-31 renal", "value": 352, "unit": "nM"}, {"measurement": "TGI", "setting": "SN12C renal", "value": 11.8, "unit": "nM"}, {"measurement": "TGI", "setting": "PC-3 prostate", "value": 1510, "unit": "nM"}, {"measurement": "TGI", "setting": "786-0 renal", "value": 53.1, "unit": "nM"}, {"measurement": "TGI", "setting": "NCI/ADR-RES ovarian", "value": 2240, "unit": "nM"}, {"measurement": "TGI", "setting": "NCI-H460 lung", "value": 15.9, "unit": "nM"}, {"measurement": "TGI", "setting": "HOP-62 NSCLC", "value": 1130, "unit": "nM"}, {"measurement": "TGI", "setting": "DU-145 prostate", "value": 254, "unit": "nM"}, {"measurement": "TGI", "setting": "NCI-H23 lung", "value": 417, "unit": "nM"}, {"measurement": "TGI", "setting": "M14 melanoma", "value": 1390, "unit": "nM"}, {"measurement": "TGI", "setting": "SK-MEL-5 melanoma", "value": 522, "unit": "nM"}, {"measurement": "TGI", "setting": "SF-295 CNS", "value": 29.1, "unit": "nM"}, {"measurement": "TGI", "setting": "OVCAR-3 ovarian", "value": 2290, "unit": "nM"}, {"measurement": "TGI", "setting": "SK-MEL-2 melanoma", "value": 2880, "unit": "nM"}, {"measurement": "TGI", "setting": "HL-60(TB) leukemia", "value": 14.9, "unit": "nM"}, {"measurement": "TGI", "setting": "NCI-H522 lung", "value": 218, "unit": "nM"}, {"measurement": "TGI", "setting": "BT-549 breast", "value": 2360, "unit": "nM"}, {"measurement": "TGI", "setting": "HT29 colon", "value": 399, "unit": "nM"}, {"measurement": "TGI", "setting": "MCF7 breast", "value": 243, "unit": "nM"}, {"measurement": "TGI", "setting": "TK-10 renal", "value": 1370, "unit": "nM"}, {"measurement": "TGI", "setting": "HS 578T breast", "value": 2700, "unit": "nM"}, {"measurement": "TGI", "setting": "IGROV1 ovarian", "value": 1450, "unit": "nM"}, {"measurement": "TGI", "setting": "MDA-N", "value": 601, "unit": "nM"}, {"measurement": "TGI", "setting": "EKVX NSCLC", "value": 1420, "unit": "nM"}, {"measurement": "TGI", "setting": "NCI-H226 lung", "value": 524, "unit": "nM"}, {"measurement": "TGI", "setting": "SNB-75 CNS", "value": 1230, "unit": "nM"}]}]}
